Where a name gives a salt, the structure may show the parent alone.
system: MTT (mouse pheochromocytoma); test: IC50 of cell viability (ATP content); conditions: (24 or 48 h)
Summary of the method: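 The IC50 was fitted with a four-parameter logistic equation to normalised CellTiter-Glo ATP luminescence from MTT mouse pheochromocytoma cells. These cells, in white 1536-well plates, had been treated for 24 or 48 hrs with library compounds at 8 final concentrations between 0.5 nM and 46 µM, and luminescence was read after 15 minutes. Positive-control wells served as 100% and DMSO wells as 0%.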

IC50 of cell viability [µM] | SMILES
> 46 | CC1C2CCC3C4C\C=C/5CC(CC[C@@]5(C)C4CC[C@]23CN1C)N(C)C (some centres not stated) [CONESSINE]
> 46 | Cc1cccc(C)c1NC(=O)c1cc([S+](N)(=O)[O-])c(Cl)cc1O [Xipamide]
> 46 | CC[C@H](CO)NCCN[C@@H](CC)CO [Ethambutol dihydrochloride]
> 46 | OCCOCCOCCO [TRIETHYLENE GLYCOL]
> 46 | CC(=O)[C@@H]1CC[C@@H]2[C@@H]3\C=C/C4=C/C(=O)CC[C@@]4(C)[C@H]3CC[C@@]12C [Dydrogesterone]
> 46 | O=S(=O)(O)NC1CCCCC1 [Cyclamic acid]
> 46 | O=C(O)C(O)C(O)C(O)C(O)C(=O)O (configuration not stated) [MUCIC ACID]
> 46 | FC(F)OC(Cl)C(F)(F)F (configuration not stated) [ISOFLURANE]
> 46 | CCCCCCCCCCCCCCCC(=O)OC(C)C [Hexadecanoic acid, 1-methylethyl ester]
> 46 | O=C(/C=C/c1cccc(F)c1)NC1CC1 [Cinflumide]
> 46 | CCc1ncnc2cc(OC)c(OC)cc12 [Quazodine]
> 46 | CC1=C(CC(=O)O)c2cc(F)ccc2/C1=C\c1ccc([S+](C)(=O)[O-])cc1 [Sulindac sulfone]
> 46 | C[C@@H]1C[C@@H]2[C@@H]3C[C@@H](F)\C4=C\C(=O)\C=C/[C@]4(C)[C@@]3(F)[C@H](O)C[C@@]2(C)[C@@]1(O)C(=O)CO [Flumethasone]
> 46 | O=C1[C@@H]2[C@H]3CC[C@H](C3)[C@@H]2C(=O)N1CCCCN1CCN(c2ncccn2)CC1 [Tandospirone]
> 46 | C[N+](C)(C)CC[N+]1(C)Cc2c(Cl)c(Cl)c(Cl)c(Cl)c2C1 [CHLORISONDAMINE]
> 46 | CN(CCO)CC(O)Cn1cnc2c1c(=O)n(C)c(=O)n2C.O=C(O)c1cccnc1 (configuration not stated) [Xanthinol niacinate]

IC50 of cell viability [µM] | SMILES
> 46 | CC(=O)Nc1c(I)c(NC(C)=O)c(I)c(C(=O)O)c1I [Diatrizoic acid dihydrate]
> 46 | C=CC1=C(C(=O)O)N2C(=O)[C@@H](NC(=O)/C(=N\OCC(=O)O)c3csc(N)n3)[C@@H]2SC1 [Cefixime]
> 46 | O=C(O)CCC(=O)OC[C@@H](NC(=O)C(Cl)Cl)[C@H](O)c1ccc([N+](=O)[O-])cc1 [Chloramphenicol succinate sodium salt]
> 46 | CCc1cc([S+](=O)([O-])[O][Na])c2cc(C(C)C)cccc1-2 [EGUALEN SODIUM]
> 46 | CCC(=O)O[C@]1(C(=O)CCl)[C@@H](C)CC2C3C[C@H](F)C4=CC(=O)C=CC4(C)[C@@]3(F)C(O)CC21C (some centres not stated) [HALOBETASOL PROPIONATE]
> 46 | ClC(Cl)Cl [Chloroform]
> 46 | CCCCCCCC(=O)OCC(COC(=O)CCCCCCC)OC(=O)CCCCCCC [Tricaprylin]
> 46 | CC(=O)NCCCS(=O)(=O)[O-] [ACAMPROSATE CALCIUM]
> 46 | CC1CC(OC(=O)C(O)c2ccccc2)CC(C)(C)C1 (configuration not stated) [CYCLANDELATE]
> 46 | Nc1nc2ccc([N+](=O)[O-])cc2s1 [2-Amino-6-nitrobenzothiazole]
> 46 | CCC(C)C1NC(=O)C(Cc2ccc(O)cc2)NC(=O)C(N)CSSCC(C(=O)N2CCCC2C(=O)NC(CC(C)C)C(=O)NCC(N)=O)NC(=O)C(CC(N)=O)NC(=O)C(CCC(N)=O)NC1=O (configuration not stated) [OXYTOCIN]
> 46 | CC(=O)Oc1ccc(C2(c3ccc(OC(C)=O)cc3)C(=O)Nc3ccccc32)cc1 [Oxyphenisatin Acetate]
> 46 | COc1ccc(OC)c([C@H](O)CNC(=O)CN)c1 [Midodrine hydrochloride]
> 46 | O.[Na+].CCOC1=CC=C2C=CC=CC2=C1C(=O)N[C@H]3[C@@H]4SC(C)(C)[C@@H]([N@@]4C3=O)C([O-])=O [Nafcillin sodium salt monohydrate]
> 46 | O=C(COc1ccc(Cl)cc1)OCCNC12C[C@H]3C[C@@H](C1)C[C@@H](C2)C3 [Adafenoxate]

More lines, now with the values behind:

SMILES | IC50 of cell viability [µM]
CC(=O)N[C@@H](C=O)[C@@H](O)[C@H](O)[C@H](O)CO [N-Acetylgalactosamine] | > 46
C[C@H](O)[C@H]1[C@@H]2C\C(=C(/N2C1=O)C(O)=O)SCCNC=N [Imipenem] | > 46
CCNCC.O=[S+]([O-])(O)c1cc(O)ccc1O [Ethamsylate] | > 46
O=C(O)CCCO | > 46
CN(C)CCOc1ccccc1Cc1ccccc1 [PHENYLTOLOXAMINE CITRATE] | > 46
CCN1\C=C(\C(O)=O)C(=O)C2=C1N=C(N3CCNCC3)C(=C2)F [Enoxacin] | > 46
CCCCC1C(=O)NC(=O)N(C2CCCCC2)C1=O (configuration not stated) [BUCOLOME] | > 46
O=C1[O][Pt]2([NH]C3CCCCC3[NH]2)[O]C1=O (configuration not stated) [OXALIPLATIN] | > 46
O.O.O.[Na+].[Na+].O[Hg]C1=C2OC/3=C/C(=O)/C(=C\C3=C(\C2=CC(=C1[O-])Br)C4=C(C=CC=C4)C([O-])=O)Br [Merbromin] | > 46
CCCCC(=O)OCC(=O)[C@H]1[C@H](C)C[C@@H]2[C@@H]3C[C@@H](F)C4=CC(=O)C=C[C@]4(C)[C@@]3(F)[C@@H](O)C[C@@]21C [DIFLUCORTOLONE VALERATE] | > 46
CC(=O)OCC(=O)Nc1cc(C#N)cc(NC(=O)COC(C)=O)c1Cl [Acreozast] | > 46
C[N+](C)(C)CCCCCCCCCC[N+](C)(C)C [DECAMETHONIUM] | > 46
C1CNCCN1 [Piperazine] | > 46
CN1C(=O)CC(=O)N(c2ccccc2)c2cc(Cl)ccc21 [CLOBAZAM] | > 46
[Na+].[Na+].CC1(C)[C@H](CC[C@@]2(C)[C@H]1CC[C@@]3(C)[C@H]2C(=O)\C=C4\[C@H]5C[C@@](C)(CC[C@]5(C)CC[C@]34C)C([O-])=O)OC(=O)CCC([O-])=O [Carbenoxolone disodium salt] | > 46
CC(C)Cc1ccc([C@@H](C)C(=O)NS(C)(=O)=O)cc1.NCCCC[C@H](N)C(=O)O [REPARIXIN] | > 46
O=C(CCl)c1ccc(Oc2ccc(C(=O)CCl)cc2)cc1 [Clofenoxyde] | > 46
CC(=O)OCC(=O)[C@@]1(O)CCC2C3C[C@H](C)C4=CC(=O)C=CC4(C)C3C(O)CC21C (some centres not stated) [Methylprednisolone acetate] | > 46
CC[N+](C)(C)c1cccc(O)c1 [Edrophonium chloride] | > 46
CC(C)CCON=O [Isoamyl nitrite] | > 46
CC[C@H]1OC(=O)[C@H](C)[C@@H](O[C@H]2C[C@@](C)(OC)[C@@H](O)[C@H](C)O2)[C@H](C)[C@@H](O[C@@H]2O[C@H](C)C[C@H](N(C)C)[C@H]2O)[C@](C)(O)C[C@@H](C)CN(C)[C@H](C)[C@@H](O)[C@]1(C)O [Azithromycin] | > 46

SMILES | IC50 of cell viability [µM]
CN(C)CCOC(=O)COc1ccc(Cl)cc1 [Meclofenoxate hydrochloride] | > 46
O=C1NCN(c2ccccc2)C12CCN(CCCOc1ccc(F)cc1)CC2 [AMI-193] | > 46
CCC1(CCC(C)C)C(=O)NC(=O)NC1=O [(?)-Amobarbital] | > 46
OCC(CO)NC1C[C@](O)(CO)[C@@H](O)[C@H](O)[C@H]1O (some centres not stated) [voglibose] | > 46
C[N+]1(CCC(C(N)=O)(c2ccccc2)c2ccccc2)CCCCC1 [FENPIVERINII BROMIDUM] | > 46
CN1C(C)(C)CCCC1(C)C.O=C(O)C(O)C(O)C(=O)O [PEMPIDINE TARTRATE] | > 46
CCOC(=O)\C1=C(/C)N\C(=C(/C1C2=CC=CC(=C2Cl)Cl)C(=O)OC)C (configuration not stated) [Felodipine] | > 46
CC12CCC3C(CC\C4=C(/O)C(=O)CCC34C)C1CCC2=O (configuration not stated) [4-Androsten-4-ol-3,17-dione] | > 46
CC(C)NCC(O)c1ccccc1Cl (configuration not stated) [CLORPRENALINE HYDROCHLORIDE] | > 46
CC(=O)O[C@H]1CC[C@]\2(C)[C@@H]3CC[C@@]4(C)[C@H](CCC4=O)[C@@H]3C\C=C2C1 [Dehydroisoandosterone 3-acetate] | > 46
CN1CCc2cc(Cl)c(O)cc2[C@H]2c3ccccc3CC[C@@H]21 [ECOPIPAMUM] | > 46
[S]=[Sb+]([S-])[S][Sb+](=[S])[S-] [ANTIMONY PENTASULFIDE] | > 46
CC[C@H](O)C(C[C@H](C)N(C)C)(c1ccccc1)c1ccccc1 | > 46
CC(C)(Oc1ccc(C2CCCc3ccccc32)cc1)C(=O)O (configuration not stated) [Nafenopin] | > 46
CCOC(=O)c1cncn1[C@@H](C)c1ccccc1 [Etomidate] | > 46
COc1cnc(N[S+](=O)([O-])c2ccc(N)cc2)nc1 [Sulfameter] | > 46
CCCCCCCCCc1ccc(O)cc1 [4-Nonylphenol, branched] | > 46
CC(C)c1ncc([N+](=O)[O-])n1C [IPRONIDAZOLE] | > 46
O=C(OCCN1CCCCC1)C(O)(c1ccccc1)c1ccccc1 [PIPETHANATE HYDROCHLORIDE] | > 46
S=C(SSC(=S)N1CCCCC1)N1CCCCC1 [Dicyclopentamethylenethiuram disulfide] | > 46
